The results in this text go back to patent publication US20240287022A1 (Merck Sharp & Dohme LLC, priority 2021, published 2024).

recombinant IL4I1, sequence (Q96RQ9 22-567): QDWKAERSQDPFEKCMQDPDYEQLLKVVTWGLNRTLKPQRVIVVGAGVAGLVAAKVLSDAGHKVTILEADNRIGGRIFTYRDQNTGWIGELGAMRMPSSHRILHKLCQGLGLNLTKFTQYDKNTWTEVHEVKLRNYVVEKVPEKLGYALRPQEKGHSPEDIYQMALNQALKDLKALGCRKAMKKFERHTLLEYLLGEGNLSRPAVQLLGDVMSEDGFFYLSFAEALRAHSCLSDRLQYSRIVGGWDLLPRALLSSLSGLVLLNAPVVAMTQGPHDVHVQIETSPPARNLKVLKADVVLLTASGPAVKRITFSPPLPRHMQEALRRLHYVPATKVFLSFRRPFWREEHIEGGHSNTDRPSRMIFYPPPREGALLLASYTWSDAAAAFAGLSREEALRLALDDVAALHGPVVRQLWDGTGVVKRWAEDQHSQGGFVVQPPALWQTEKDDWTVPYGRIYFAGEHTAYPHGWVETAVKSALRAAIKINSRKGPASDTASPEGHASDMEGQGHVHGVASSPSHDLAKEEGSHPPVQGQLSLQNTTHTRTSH

This assay concerns the target recombinant IL4I1 (Homo sapiens (Human), UniProt Q96RQ9). Description: IL4I1 Enzymatic Assay (Amplex Red/HRP coupled H2O2 detection). It counts as biochemical. To be noted: 1 nM IL4I1, 1 mM each Phe/Tyr/Trp, four-hour pre-incubation, 120 minutes reaction, top compound concentration of 10000 nM. A digest of the protocol:
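Recombinant IL4I1 (1 nM final) was pre-incubated 4 h at ambient temperature with compound in 50 mM Hepes pH 7.0, 0.005% Tween20. Reaction ran 120 min with 1 mM each Phe/Tyr/Trp, 0.05 mM Amplex Red and 1 U/mL HRP. Resorufin fluorescence (544/590 nm) was read, and EC50 fitted from ten-point 1:3 titrations (top 10000 nM) by four-parameter regression.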
One may read the EC50 as the concentration that produces a half-maximal response. For the molecule `N#CC1(c2cccc(Cc3cc4cnccc4[nH]c3=O)c2)CC1` [Example 116, 1-(3-((2-oxo-1,2-dihydro-1,6-naphthyridin-3-yl)methyl)phenyl)cyclopropane-1-carbonitrile], the EC50 came to 1.7 nM.

`O=c1[nH]c2ccncc2cc1Cc1cccc(OC(F)(F)F)c1` [Example 117, 3-(3-(trifluoromethoxy)benzyl)-1,6-naphthyridin-2(1H)-one]: the EC50 was determined as 2.1 nM.

As for `O=C1NCc2ccc(Cc3cc4cnccc4[nH]c3=O)cc21` [Example 118, 3-((3-oxoisoindolin-5-yl)methyl)-1,6-naphthyridin-2(1H)-one], the EC50 was determined as 11.1 nM.

`COC(=O)Nc1ccc(Cc2cc3ccccc3[nH]c2=O)cc1` [Example 119, methyl (4-((2-oxo-1,2-dihydroquinolin-3-yl)methyl)phenyl)carbamate]: the EC50 was 16 nM.

`NS(=O)(=O)c1cccc(Cc2cc3cc(F)ccc3[nH]c2=O)c1` [Example 120, 3-((6-fluoro-2-oxo-1,2-dihydroquinolin-3-yl)methyl)benzenesulfonamide]: the EC50 was determined as 3.6 nM.

Take `O=c1[nH]c2ccc(Cc3cc4ccccc4[nH]c3=O)cc2o1` [Example 121, 6-((2-oxo-1,2-dihydroquinolin-3-yl)methyl)benzo[d]oxazol-2(3H)-one]: the EC50 was 0.9 nM.

For the molecule `O=C1COc2c(Cc3cc4ccccc4[nH]c3=O)cccc2N1` [Example 122, 8-((2-oxo-1,2-dihydroquinolin-3-yl)methyl)-2H-benzo[b][1,4]oxazin-3(4H)-one], the EC50 was 6.6 nM.

With `O=C1CCc2cc(Cc3cc4cc(F)ccc4[nH]c3=O)ccc2N1` [Example 123, 6-fluoro-3-((2-oxo-1,2,3,4-tetrahydroquinolin-6-yl)methyl)quinolin-2(1H)-one], the EC50 was 3.7 nM.

Consider `CC(=O)NCc1ccc(Cc2cc3ccccc3[nH]c2=O)cc1` [Example 124, N-(4-((2-oxo-1,2-dihydroquinolin-3-yl)methyl)benzyl)acetamide], for which the EC50 was 3.5 nM.

Take `O=c1[nH]c2ccccc2cc1Cc1ccc(-c2cn[nH]c2)cc1` [Example 125, 3-(4-(1H-pyrazol-4-yl)benzyl)quinolin-2(1H)-one]: the EC50 is 6.1 nM.

`O=c1[nH]c2ccccc2cc1Cc1ccc(-c2cnccn2)c(F)c1` [Example 127, 3-(3-fluoro-4-(pyrazin-2-yl)benzyl)quinolin-2(1H)-one]: the EC50 came out at 2.1 nM.

In the case of `CC(=O)NCc1cccc(Cc2cc3ccccc3[nH]c2=O)c1` [Example 128, N-(3-((2-oxo-1,2-dihydroquinolin-3-yl)methyl)benzyl)acetamide], the EC50 is 30.4 nM.

As for `O=c1[nH]c2ccccc2cc1Cc1ccc2c(c1)CCNC2` [Example 129, 3-((1,2,3,4-tetrahydroisoquinolin-6-yl)methyl)quinolin-2(1H)-one], the EC50 is 13.6 nM.

For the molecule `O=c1[nH]c2ccccc2cc1Cc1ccc2occc(=O)c2c1` [Example 130, 3-((4-oxo-4H-chromen-6-yl)methyl)quinolin-2(1H)-one], the EC50 was found to be 1.8 nM.

Take `Cc1cc(Cc2cc3ccccc3[nH]c2=O)cnc1-c1cccc(F)c1` [Example 131, 3-((6-(3-fluorophenyl)-5-methylpyridin-3-yl)methyl)quinolin-2(1H)-one]: the EC50 came to 3.7 nM.

With `O=c1[nH]c2ccccc2cc1Cc1ccc2nn[nH]c2c1` [Example 132, 3-((1H-benzo[d][1,2,3]triazol-6-yl)methyl)quinolin-2(1H)-one], the EC50 was 18.6 nM.

In the case of `COc1cc(C#N)cc(Cc2cc3ccccc3[nH]c2=O)c1` [Example 133, 3-methoxy-5-((2-oxo-1,2-dihydroquinolin-3-yl)methyl)benzonitrile], the EC50 turned out to be 2 nM.

As to `Cc1nc(C)c(Cc2cc3ccccc3[nH]c2=O)s1` [Example 134, 3-((2,4-dimethylthiazol-5-yl)methyl)quinolin-2(1H)-one], the EC50 came out at 5.1 nM.

As for `O=c1[nH]c2ccccc2cc1Cc1cnn2c1CCC2` [Example 135, 3-((5,6-dihydro-4H-pyrrolo[1,2-b]pyrazol-3-yl)methyl)quinolin-2(1H)-one], the EC50 was 11.3 nM.

As to `O=c1[nH]c2ccccc2cc1Cc1coc2ccccc12` [Example 136, 3-(benzofuran-3-ylmethyl)quinolin-2(1H)-one], the EC50 turned out to be 0.5 nM.

For `O=c1[nH]c2ccccc2cc1Cc1cnc(N2CCCCC2)s1` [Example 137, 3-((2-(piperidin-1-yl)thiazol-5-yl)methyl)quinolin-2(1H)-one], the EC50 stood at 4.5 nM.

`O=c1[nH]c2ccccc2cc1Cc1cnc(-c2ccc(F)cc2)o1` [Example 138, 3-((2-(4-fluorophenyl)oxazol-5-yl)methyl)quinolin-2(1H)-one]: the EC50 was found to be 36.9 nM.

On to `O=c1[nH]c2ccccc2cc1Cc1cnc(N2CCCC2)s1` [Example 139, 3-((2-(pyrrolidin-1-yl)thiazol-5-yl)methyl)quinolin-2(1H)-one], for which the EC50 was found to be 8.5 nM.

Take `O=c1[nH]c2ccccc2cc1Cc1cc(-c2ccccc2)no1` [Example 140, 3-((3-phenylisoxazol-5-yl)methyl)quinolin-2(1H)-one]: the EC50 was 23.4 nM.

For the molecule `NS(=O)(=O)c1cccc(Cc2cc3ccccc3[nH]c2=O)c1` [Example 141, 3-((2-oxo-1,2-dihydroquinolin-3-yl)methyl)benzenesulfonamide], the EC50 is 20.2 nM.

As for `Cn1c(=O)c(Cc2ccc(C(C)(C)O)cc2)cc2ccccc21` [Example 143, 3-(4-(2-hydroxypropan-2-yl)benzyl)-1-methylquinolin-2(1H)-one], the concentration for a half-maximal effect (EC50) is 2.6 nM.

Take `Cn1c(=O)c(Cc2cccc(OC(F)(F)F)c2)cc2ccccc21` [Example 144, 1-methyl-3-(3-(trifluoromethoxy)benzyl)quinolin-2(1H)-one]: the EC50 was determined as 7.2 nM.

Consider `N#CC1CC(Oc2ccc(Cc3cc4ccccc4[nH]c3=O)cc2)C1` (stereo not shown) [Example 146, 3-(4-((2-oxo-1,2-dihydroquinolin-3-yl)methyl)phenoxy)cyclobutane-1-carbonitrile], for which the EC50 came to 1.7 nM.

In the case of `N#CC1(c2ccc(Cc3cc4ccccc4[nH]c3=O)cc2)COC1` [Example 147, 3-(4-((2-oxo-1,2-dihydroquinolin-3-yl)methyl)phenyl)oxetane-3-carbonitrile], the EC50 is 2.3 nM.

Take `CC(C)(C#N)n1cc(Cc2cc3ccccc3[nH]c2=O)cn1` [Example 148, 2-methyl-2-(4-((2-oxo-1,2-dihydroquinolin-3-yl)methyl)-1H-pyrazol-1-yl)propanenitrile]: the EC50 was determined as 258 nM.

`O=C1COc2c(Cc3cc4cccc5c4n(c3=O)CCC5)cccc2N1` [Example 149, 8-((5-oxo-2,3-dihydro-1H,5H-pyrido[3,2,1-ij]quinolin-6-yl)methyl)-2H-benzo[b][1,4]oxazin-3(4H)-one]: the EC50 was 150 nM.

In the case of `CC(=O)Nc1ccc(Cc2cc3ccccc3[nH]c2=O)cn1` [Example 150, N-(5-((2-oxo-1,2-dihydroquinolin-3-yl)methyl)pyridin-2-yl)acetamide], the EC50 is 16.9 nM.

`CC(=O)NCc1ccc(Cc2cc3ccccc3n(C)c2=O)cc1` [Example 151, N-(4-((1-Methyl-2-oxo-1,2-dihydroquinolin-3-yl)methyl)benzyl)acetamide]: the EC50 was 3.3 nM.

For `O=c1[nH]c2ccccc2cc1Cc1ccc2ncccc2c1` [Example 152, 3-(Quinolin-6-ylmethyl)quinolin-2(1H)-one], the concentration giving a half-maximal response (EC50) is 5.3 nM.

Take `Cn1ncc2cc(Cc3cc4ccccc4[nH]c3=O)ccc21` [Example 153, 3-((1-methyl-1H-indazol-5-yl)methyl)quinolin-2(1H)-one]: the EC50 is 1.2 nM.

For the molecule `O=C1CCc2cc(Cc3cc4ccccc4[nH]c3=O)ccc2N1` [Example 154, 3-((2-oxo-1,2,3,4-tetrahydroquinolin-6-yl)methyl)quinolin-2(1H)-one], the EC50 worked out at 5.4 nM.

Turning to `O=C1COc2ccc(Cc3cc4ccccc4[nH]c3=O)cc2N1` [Example 155, 6-((2-oxo-1,2-dihydroquinolin-3-yl)methyl)-2H-benzo[b][1,4]oxazin-3(4H)-one], the EC50 came to 2 nM.

For the molecule `O=c1[nH]c2ccccc2cc1Cc1ccc2scnc2c1` [Example 156, 3-(benzo[d]thiazol-5-ylmethyl)quinolin-2(1H)-one], the EC50 amounted to 1.4 nM.

As for `O=c1[nH]c2ccccc2cc1Cc1ccc2nccnc2c1` [Example 157, 3-(quinoxalin-6-ylmethyl)quinolin-2(1H)-one], the EC50 worked out at 6.2 nM.

Turning to `O=c1[nH]c2ccccc2cc1Cc1cnn2ncccc12` [Example 158, 3-(pyrazolo[1,5-b]pyridazin-3-ylmethyl)quinolin-2(1H)-one], the EC50 was found to be 60.2 nM.

With `O=C1CC[C@@H](c2ccc(Cc3cc4ccccc4[nH]c3=O)cc2)N1` [Example 159, (S)-3-(4-(5-oxopyrrolidin-2-yl)benzyl)quinolin-2(1H)-one], the EC50 was 4.1 nM.

Regarding `CC(C)(O)c1ccc(Cc2cc3ccccc3[nH]c2=O)cc1` [Example 160, 3-(4-(2-Hydroxypropan-2-yl)benzyl)quinolin-2(1H)-one], the EC50 was determined as 6.3 nM.

With `CC1(O)CC(c2ccc(Cc3cc4ccccc4[nH]c3=O)cc2)C1` (stereo not shown) [Example 161, 3-(4-(3-hydroxy-3-methylcyclobutyl)benzyl)quinolin-2(1H)-one], the EC50 came out at 3.2 nM.

Consider `Cn1cc2c(Cc3cc4cc(F)ccc4[nH]c3=O)cccc2n1` [Example 163, 6-fluoro-3-((2-methyl-2H-indazol-4-yl)methyl)quinolin-2(1H)-one], for which the EC50 was found to be 5.4 nM.

As to `Cc1c(Cc2ccccc2)c(=O)[nH]c2ccccc12` [Example 164, 3-Benzyl-4-methylquinolin-2(1H)-one], the EC50 stood at 10000 nM.

For the molecule `Cc1cc(Cc2cc3ccccc3[nH]c2=O)ccc1CNS(C)(=O)=O` [Example 165, N-(2-methyl-4-((2-oxo-1,2-dihydroquinolin-3-yl)methyl)benzyl)methanesulfonamide], the EC50 came to 6.2 nM.
